Test results reported in patent publication US8163805B2, “Small molecule antagonists of Bcl-2 family proteins” (The Regents of the University of Michigan, priority 2001, dated 2012).

Legend:
[1] = tested on: A549 non-small cell lung carcinoma xenograft; conditions: mouse, in vivo
[2] = tested on: A549 non-small cell lung carcinoma xenograft; test: A549 non-small cell lung carcinoma xenograft, (−)-gossypol with paclitaxel; conditions: Table 13; paclitaxel 15 mg/kg i.p. twice q week for 3 weeks, alone
UM-SCC-23 = test: 6-day MTT cell growth, UM-SCC-23; format: cell-based, human; conditions: read-out: IC50, inhibition of cell growth
Protocol: (§1) UM-SCC and human fibroblast cell lines were continuously exposed to varying concentrations of (−)-gossypol in 6-day MTT cell survival assays. Control wells contained media (DMEM) with vehicle alone. For each data point n=5.
(§2) Ten squamous cell carcinoma cell lines established at the University of Michigan (UM-SCC) and three human fibroblast lines were grown in Dulbecco's modified Eagle's medium (DMEM) supplemented with 10% fetal bovine serum. UM-SCC cell lines originated from the larynx (n=2; UM-SCC-12, -23), oral cavity/oropharynx (n=5; UM-SCC-1, -6, -14A, -74B, -81B), hypopharynx (n=1; UM-SCC-22A) and metastases from laryngeal cancers (n=2; UM-SCC-17B, -25). Human fibroblast cell lines originated from surgical specimens (fibroblast cell lines 2 and 3) and neonatal foreskin samples (fibroblast cell line 1).
(§3) Logarithmically growing cell lines were cultured, washed, counted, and plated at 5,000-15,000 cells per well in duplicate wells of 96-well plates and incubated in DMEM overnight. […] The MTT assay measures cell survival based on mitochondrial conversion of MTT from a soluble tetrazolium salt into an insoluble colored formazan precipitate, which is dissolved in dimethyl sulfoxide and quantitated by spectrophotometry. […] Percent absorbance relative to control was plotted as a linear function of drug concentration.

UM-SCC-1 = test: 6-day MTT cell growth, UM-SCC-1; format: cell-based, human; conditions: read-out: IC50, inhibition of cell growth
Protocol: as §1, §2, §3

UM-SCC-6 = test: 6-day MTT cell growth, UM-SCC-6; format: cell-based, human; conditions: read-out: IC50, inhibition of cell growth
Protocol: as §1, §2, §3

UM-SCC-22A = test: 6-day MTT cell growth, UM-SCC-22A; format: cell-based, human; conditions: read-out: IC50, inhibition of cell growth
Protocol: as §1, §2, §3

UM-SCC-12 = test: 6-day MTT cell growth, UM-SCC-12; format: cell-based, human; conditions: read-out: IC50, inhibition of cell growth
Protocol: as §1, §2, §3

UM-SCC-81B = test: 6-day MTT cell growth, UM-SCC-81B; format: cell-based, human; conditions: read-out: IC50, inhibition of cell growth
Protocol: as §1, §2, §3

UM-SCC-17B = test: 6-day MTT cell growth, UM-SCC-17B; format: cell-based, human; conditions: read-out: IC50, inhibition of cell growth
Protocol: as §1, §2, §3

UM-SCC-14A = test: 6-day MTT cell growth, UM-SCC-14A; format: cell-based, human; conditions: read-out: IC50, inhibition of cell growth
Protocol: as §1, §2, §3

UM-SCC-74B = test: 6-day MTT cell growth, UM-SCC-74B; format: cell-based, human; conditions: read-out: IC50, inhibition of cell growth
Protocol: as §1, §2, §3

UM-SCC-25 = test: 6-day MTT cell growth, UM-SCC-25; format: cell-based, human; conditions: read-out: IC50, inhibition of cell growth
Protocol: as §1, §2, §3

[3] = tested on: Fib-1 (fibroblast cell line 1); test: 6-day MTT cell growth, Fib-1; format: cell-based, human; conditions: read-out: IC50, inhibition of cell growth
Protocol: as §1, §2, §3

[4] = tested on: Fib-2 (fibroblast cell line 2); test: 6-day MTT cell growth, Fib-2; format: cell-based, human; conditions: read-out: IC50, inhibition of cell growth
Protocol: as §1, §2, §3

[5] = tested on: Fib-3 (fibroblast cell line 3); test: 6-day MTT cell growth, Fib-3; format: cell-based, human; conditions: read-out: IC50, inhibition of cell growth
Protocol: as §1, §2, §3

[6] = tested on: PC-3 human prostate cancer bilateral xenografts; test: PC-3 xenograft, (−)-gossypol alone and with cisplatin (Table 11); format: in vivo, NCr-nu nude mouse; conditions: mouse, in vivo
[7] = tested on: colon cancer cell line HT-29 xenograft; conditions: Table 12; cisplatin 10 mg/kg i.v. twice q week; most mice, during the 2nd week of treatment; dose too high

**Q.** `CC(=O)O[C@H]1C(=O)[C@@]2(C)[C@H]([C@H](OC(=O)c3ccccc3)[C@]3(O)C[C@H](OC(=O)[C@H](O)[C@@H](NC(=O)c4ccccc4)c4ccccc4)C(C)=C1C3(C)C)[C@]1(OC(C)=O)CO[C@@H]1C[C@@H]2O` [Paclitaxel] was tested. Which weight loss [1] did it give?
**A.** The weight loss was “There was no weight loss in mice”.

**Q.** What about the tumor growth inhibition [2] of the same compound?
**A.** The tumor growth inhibition was “achieved about 67% tumor growth”.

**Q.** With `N.N.[Cl][Pt][Cl]` [Cisplatin, cisplatin, reference compound] as the compound, how does the IC50 (UM-SCC-23) read?
**A.** The IC50 was 25 µM.

**Q.** What about the IC50 (UM-SCC-1) of the same compound?
**A.** Its IC50 is 30 µM.

**Q.** What about the IC50 (UM-SCC-6) of the same compound?
**A.** The IC50 was greater than 50 µM.

**Q.** What about the IC50 (UM-SCC-22A) of the same compound?
**A.** Its IC50 is 5 µM.

**Q.** And the IC50 (UM-SCC-12)?
**A.** The IC50 was 22 µM.

**Q.** And the IC50 (UM-SCC-81B)?
**A.** Its IC50 is 22 µM.

**Q.** And the IC50 (UM-SCC-17B)?
**A.** The IC50 was 13 µM.

**Q.** What about the IC50 (UM-SCC-14A) of the same compound?
**A.** Its IC50 is 29 µM.

**Q.** And the IC50 (UM-SCC-74B)?
**A.** The IC50 was 12 µM.

**Q.** What about the IC50 (UM-SCC-25) of the same compound?
**A.** Its IC50 is 43 µM.

**Q.** What about the IC50 [3] of the same compound?
**A.** Its IC50 is greater than 50 µM.

**Q.** And the IC50 [4]?
**A.** Its IC50 is greater than 50 µM.

**Q.** What about the IC50 [5] of the same compound?
**A.** Its IC50 is greater than 50 µM.

**Q.** What about the “time after CDDP treatment stopped when mice started to gain back the weight” value [6] of the same compound?
**A.** The value was “to gain back the weight 1-2 weeks”.

**Q.** And the “mortality in cisplatin treated group” value [7]?
**A.** Its value is “mice were dead in the cisplatin”.
